Reference: PubChem BioAssay (NCI)
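Compound exposure: 48 hours, 5 concentrations, 96-well plates. TGI marks complete inhibition of growth.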

Columns and labels:
Assay in all cases: NCI-60 cell line screen, 48 h
M14 melanoma = tested on: M14 melanoma
SK-MEL-5 melanoma = tested on: SK-MEL-5 melanoma
NCI-H23 lung = tested on: NCI-H23 lung
HCT-15 colon = tested on: HCT-15 colon
OVCAR-3 ovarian = tested on: OVCAR-3 ovarian
A498 renal = tested on: A498 renal
SF-295 CNS = tested on: SF-295 CNS
DMS 114 small cell lung = tested on: DMS 114 small cell lung
MOLT-4 leukemia = tested on: MOLT-4 leukemia
HCC-2998 colon = tested on: HCC-2998 colon
NCI-H226 lung = tested on: NCI-H226 lung
HL-60(TB) leukemia = tested on: HL-60(TB) leukemia
DMS 273 small cell lung = tested on: DMS 273 small cell lung
786-0 renal = tested on: 786-0 renal
SK-MEL-28 melanoma = tested on: SK-MEL-28 melanoma
RXF 393 renal = tested on: RXF 393 renal
EKVX NSCLC = tested on: EKVX NSCLC
MALME-3M melanoma = tested on: MALME-3M melanoma
HOP-92 NSCLC = tested on: HOP-92 NSCLC
CAKI-1 renal = tested on: CAKI-1 renal
SNB-78 CNS = tested on: SNB-78 CNS
M19-MEL melanoma = tested on: M19-MEL melanoma
UACC-62 melanoma = tested on: UACC-62 melanoma
KM12 colon = tested on: KM12 colon
HOP-62 NSCLC = tested on: HOP-62 NSCLC
OVCAR-4 ovarian = tested on: OVCAR-4 ovarian
A549 NSCLC = tested on: A549 NSCLC
HT29 colon = tested on: HT29 colon
OVCAR-8 ovarian = tested on: OVCAR-8 ovarian
NCI-H460 lung = tested on: NCI-H460 lung
HCT-116 colon = tested on: HCT-116 colon
LOX IMVI melanoma = tested on: LOX IMVI melanoma
IGROV1 ovarian = tested on: IGROV1 ovarian
LXFL 529 NSCLC = tested on: LXFL 529 NSCLC
SW-620 colon = tested on: SW-620 colon
SF-539 CNS = tested on: SF-539 CNS
SF-268 CNS = tested on: SF-268 CNS
COLO 205 colon = tested on: COLO 205 colon
K-562 leukemia = tested on: K-562 leukemia
U251 CNS = tested on: U251 CNS
UACC-257 melanoma = tested on: UACC-257 melanoma
RPMI-8226 leukemia = tested on: RPMI-8226 leukemia
SK-MEL-2 melanoma = tested on: SK-MEL-2 melanoma
SK-OV-3 ovarian = tested on: SK-OV-3 ovarian
KM20L2 colon = tested on: KM20L2 colon
SN12C renal = tested on: SN12C renal
UO-31 renal = tested on: UO-31 renal
TK-10 renal = tested on: TK-10 renal
SNB-19 CNS = tested on: SNB-19 CNS
DLD-1 colon = tested on: DLD-1 colon
CCRF-CEM leukemia = tested on: CCRF-CEM leukemia
NCI-H522 lung = tested on: NCI-H522 lung
SNB-75 CNS = tested on: SNB-75 CNS
HOP-18 NSCLC = tested on: HOP-18 NSCLC
OVCAR-5 ovarian = tested on: OVCAR-5 ovarian
ACHN renal = tested on: ACHN renal
SR leukemia = tested on: SR leukemia

Measured: TGI

CC12CCC3(C1)[C@H](CC2=O)C[C@@H](OC(=O)c1ccccc1)C1C(C)(CO)CCC[C@@]13C (some centres undefined)
19.7 µM: MOLT-4 leukemia
19.5 µM: DMS 114 small cell lung
61.7 µM: UO-31 renal
58.3 µM: HOP-92 NSCLC
17.9 µM: NCI-H522 lung
> 72.1 µM: OVCAR-4 ovarian
> 54.1 µM: CCRF-CEM leukemia
97 µM: A549 NSCLC
> 52.3 µM: OVCAR-3 ovarian
> 89.1 µM: SK-OV-3 ovarian
27.1 µM: COLO 205 colon
8.38 µM: HL-60(TB) leukemia
> 45.8 µM: NCI-H460 lung
12 µM: RPMI-8226 leukemia
> 90.8 µM: SK-MEL-2 melanoma
1.71 µM: SK-MEL-5 melanoma
> 89 µM: UACC-62 melanoma
13.3 µM: DMS 273 small cell lung
23.8 µM: UACC-257 melanoma
> 38.9 µM: SF-295 CNS
> 27.2 µM: CAKI-1 renal
65.9 µM: NCI-H226 lung
95.7 µM: OVCAR-5 ovarian
47.6 µM: RXF 393 renal
not listed: SR leukemia
> 100 µM: all other assays above

O=C(CSc1nnc(Cc2ccccc2)o1)Nc1ccc(Cl)cc1Cl
not listed: EKVX NSCLC | HOP-92 NSCLC | SR leukemia
> 100 µM: all other assays above

COc1ccc(-c2nnc(-c3nsc4ccccc34)o2)cc1
93.9 µM: RXF 393 renal
83.4 µM: SNB-75 CNS
71.4 µM: RPMI-8226 leukemia
92.6 µM: OVCAR-3 ovarian
not listed: A498 renal | SF-295 CNS | MOLT-4 leukemia | NCI-H226 lung | HL-60(TB) leukemia | 786-0 renal | MALME-3M melanoma | CAKI-1 renal | K-562 leukemia | SK-OV-3 ovarian | DLD-1 colon | CCRF-CEM leukemia | NCI-H522 lung
> 100 µM: all other assays above
